According to article PMC11528023, “Transport mechanism and structural pharmacology of human urate transporter URAT1” (Cell Research, 2024):

Target: T1, URAT1WT (Homo sapiens, UniProt Q96S37)
T1 construct: expressed in transfected cells; host or cells: HEK293 cells (ATCC, CRL-3216), transient transfection with Lipofectamine 3000
T1 sequence (Q96S37 1-553): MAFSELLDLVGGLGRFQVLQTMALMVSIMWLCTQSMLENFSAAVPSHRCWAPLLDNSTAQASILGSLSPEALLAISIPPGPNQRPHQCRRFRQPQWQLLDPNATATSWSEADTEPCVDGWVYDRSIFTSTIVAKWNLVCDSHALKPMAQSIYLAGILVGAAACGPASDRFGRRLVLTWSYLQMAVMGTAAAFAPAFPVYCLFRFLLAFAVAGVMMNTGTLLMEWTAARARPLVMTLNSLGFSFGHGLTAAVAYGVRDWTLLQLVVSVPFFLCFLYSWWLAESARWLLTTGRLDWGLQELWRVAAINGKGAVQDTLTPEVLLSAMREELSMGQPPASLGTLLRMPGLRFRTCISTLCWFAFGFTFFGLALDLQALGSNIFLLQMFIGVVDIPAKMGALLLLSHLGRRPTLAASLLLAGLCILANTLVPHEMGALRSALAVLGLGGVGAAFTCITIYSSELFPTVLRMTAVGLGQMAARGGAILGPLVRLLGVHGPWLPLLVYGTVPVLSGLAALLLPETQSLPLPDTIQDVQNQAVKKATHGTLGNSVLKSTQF
Assay: 14C-urate uptake inhibition in HEK293 cells expressing WT URAT1
Assay type: cell-based
Method: Data are shown as mean ± SD; n = 3 biological replicates. In a, b, uptake buffer: 20 mM HEPES pH 7.4, 125 mM sodium gluconate, 4.8 mM potassium gluconate, 1.2 mM monobasic potassium phosphate, 1.2 mM magnesium sulfate, 1.3 mM calcium gluconate, and 5.6 mM glucose. c Cryo-EM density maps of URAT1 in the apo and substrate-bound states. […] Putative lipid densities are in light cyan. d Cryo-EM density maps of URAT1 in the drug-bound states. […] Putative lipid densities are in light cyan. e Diagram of URAT1 topology. ECD, extracellular domain. f Structure of URAT1 in the apo state. g Slice view of URAT1 in the apo state, showing the central cavity and opening to the intracellular side.
Human embryonic kidney (HEK) 293 cells (ATCC, CRL-3216) were seeded onto poly(D-lysine)-coated 96-well plates at a density of 0.3 × 10^5 cells per well and cultured at 37 °C until reaching approximately 70%–80% confluence. The cells were transiently transfected with plasmids encoding the URAT1 WT or mutants using Lipofectamine 3000 (Invitrogen, L3000001), following the manufacturer’s protocol. The transfected cells were cultured at 37 °C for 12 h. Following this, 10 mM sodium butyrate was added, and the cells were further incubated at 30 °C for an additional 24 h. […]

**Q.** `O=C(c1cc(Cl)c(O)c(Cl)c1)N1CS(=O)(=O)c2ccccc21` [dotinurad] was tested. Which IC50 did it give?
**A.** Its IC50 is 170 nM.
